Test results: PubChem BioAssay (NCI)
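Values below derive from 48-hour exposures of cells grown in 96-well plates, with endpoints linearly interpolated between the two concentrations bracketing the appropriate inhibition level. TGI is the concentration that stops growth completely.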

Assays:
Experiment in all cases: DTP human tumour cell line panel, 48 h
A549 NSCLC = tested on: A549 NSCLC
OVCAR-8 ovarian = tested on: OVCAR-8 ovarian
M14 melanoma = tested on: M14 melanoma
NCI-H23 lung = tested on: NCI-H23 lung
HOP-62 NSCLC = tested on: HOP-62 NSCLC
HCT-15 colon = tested on: HCT-15 colon
NCI-H226 lung = tested on: NCI-H226 lung
RXF 393 renal = tested on: RXF 393 renal
LOX IMVI melanoma = tested on: LOX IMVI melanoma
SF-295 CNS = tested on: SF-295 CNS
NCI-H522 lung = tested on: NCI-H522 lung
U251 CNS = tested on: U251 CNS
UACC-62 melanoma = tested on: UACC-62 melanoma

Compound	TGI (A549 NSCLC) [µM]	TGI (OVCAR-8 ovarian) [µM]	TGI (M14 melanoma) [µM]	TGI (NCI-H23 lung) [µM]	TGI (HOP-62 NSCLC) [µM]	TGI (HCT-15 colon) [µM]	TGI (NCI-H226 lung) [µM]	TGI (RXF 393 renal) [µM]	TGI (LOX IMVI melanoma) [µM]	TGI (SF-295 CNS) [µM]	TGI (NCI-H522 lung) [µM]	TGI (U251 CNS) [µM]	TGI (UACC-62 melanoma) [µM]
NC(=O)N/N=C(\Cc1cc(=O)oc2cc(O)ccc12)C(=O)Nc1ccccc1C(N)=O	> 100	> 100	> 100	> 100	> 100	> 100	> 100	> 100	> 100	> 100	> 100	> 100	> 100
O=C(Nc1ccc(Cl)cc1)c1cc(S(=O)(=O)Nc2nc3ncccc3[nH]2)c(SSc2cc(Cl)c(C(=O)Nc3ccc(Cl)cc3)cc2S(=O)(=O)Nc2nc3ncccc3[nH]2)cc1Cl	> 100	> 100	> 100	> 100	> 100	> 100	> 100	> 100	> 100	> 100	> 100	> 100	> 100
Cc1cc2c(cc1Cl)SSc1cc(Cl)c(C)cc1S(=O)(=O)Nc1nc(N)nn1C(O)n1nc(N)nc1NS2(=O)=O	> 10	> 10	> 10	> 10	> 10	> 10	> 10	> 10	> 10	> 10	> 10	> 10	
CCN(CC)C1=Nc2ccccc2-n2ccnc2C1	> 100	> 100	> 100	> 100	> 100	> 100	> 100	> 100	> 100	> 100	> 100	> 100	> 100
COc1cc2ncnc(Nc3cccc(Br)c3)c2cc1OC	> 69.1	> 35.1	20.6	28.7	> 41.2	22.7	18.5	53	10.2	14.3	11.1	> 46.7	17.5
c1ccc(C/C(=N\Nc2nc3ccccc3[nH]2)c2ccccn2)cc1	11.9	2.08	0.915	13.5	12.6	15.6	0.295	1.58	8.1	6.78	0.105	12.3	2.79
N#C/C=C(/NC(=O)Nc1ccccc1)N1CCCC1	> 61.3	> 51.8	> 100	> 64.7	> 35.8	> 100	> 65.9	> 100	97.4	> 43.8	> 60.8	> 53.8	> 100
O=C1C(NS(=O)(=O)c2ccccc2)=C(n2ccnc2)C(=O)c2ccccc21	> 100	> 100	> 100	> 100	> 100	> 100	> 100	> 100	> 100	> 100	> 100	> 100	> 100
CCOC(=O)Cn1nnc2ccc(Nc3nc4ccccc4nc3C(=O)OCC)cc21	> 100	> 100	> 100	> 100	> 100	> 100	> 100	> 100	> 100	> 100	> 100	> 100	> 100
CCOC(=O)N1CCC2(CC1)C[C@](Sc1ccccc1)(C(C)=O)[C@H](C)O2	> 100	> 100	> 100	> 100	> 100	> 100	> 100	> 100	> 100	> 100	> 100	> 100	> 100
COC(=O)C12CCCN1CCC2	> 100		> 100	> 100	> 100	> 100	> 100	> 100	> 100	> 100	> 100	> 100	> 100
CCOC(=O)c1ccc(N2C(=O)/C(=C/c3ccc(N(CCC#N)CCC#N)cc3)N=C2c2cc([N+](=O)[O-])ccc2Cl)cc1	> 100	> 100		> 100	> 100	> 100	> 100	> 100	> 100	> 100	> 100	> 100	> 100
COc1nc2ncc([C@@H](OC(C)=O)[C@@H](COC(C)=O)OC(C)=O)nc2c(=O)n1C	> 100	> 100	> 100		> 100	> 100	> 100	> 100	> 100	> 100	> 100	> 100	> 100
COP(=O)(OC)[C@@](O)(c1ccccc1)[C@@H](O)[C@H](O)c1ccccc1	> 100	> 100	> 100	> 100		> 100	> 100	> 100	56.4	> 100	> 100	> 100	> 100
C[C@]12CC[C@H]3[C@@H](CC=C4C[C@@H](N5CCCC5)CC[C@@]43C)[C@@H]1C/C(=C\c1ccc([N+](=O)[O-])cc1)[C@@H]2O	32.6		30.2	37.4	32	28.4	36.2	57.8	30.9	96.7	32	25.2	29.3
CSC(=Nc1ccccc1)c1c(C)[nH]n(-c2ccccc2)c1=O	> 100	> 100	> 100	> 100		> 100	> 100	> 100	> 100		> 100	> 100	> 100
OC1C2CN3CCN(C2)CC1(c1ccccc1)C3 (stereo not given)		> 100		> 100	> 100		> 100	> 100	> 100	> 100	> 100	> 100	> 100
